Source: US20230124087A1, “KV3 ENHANCERS FOR THE TREATMENT OF COGNITIVE DISORDERS” (Hoffmann-La Roche Inc., priority 2020, published 2023)
pEC50: −log10 of the molar value.

target: T1, Kv3.1 (Homo sapiens, UniProt P48547); assay: Kv3.1 automated patch clamp (Qube) cellular electrophysiology assay; format: cell-based; conditions: not given
T1 construct: expressed in transfected cells
T1 sequence (P48547 1-511): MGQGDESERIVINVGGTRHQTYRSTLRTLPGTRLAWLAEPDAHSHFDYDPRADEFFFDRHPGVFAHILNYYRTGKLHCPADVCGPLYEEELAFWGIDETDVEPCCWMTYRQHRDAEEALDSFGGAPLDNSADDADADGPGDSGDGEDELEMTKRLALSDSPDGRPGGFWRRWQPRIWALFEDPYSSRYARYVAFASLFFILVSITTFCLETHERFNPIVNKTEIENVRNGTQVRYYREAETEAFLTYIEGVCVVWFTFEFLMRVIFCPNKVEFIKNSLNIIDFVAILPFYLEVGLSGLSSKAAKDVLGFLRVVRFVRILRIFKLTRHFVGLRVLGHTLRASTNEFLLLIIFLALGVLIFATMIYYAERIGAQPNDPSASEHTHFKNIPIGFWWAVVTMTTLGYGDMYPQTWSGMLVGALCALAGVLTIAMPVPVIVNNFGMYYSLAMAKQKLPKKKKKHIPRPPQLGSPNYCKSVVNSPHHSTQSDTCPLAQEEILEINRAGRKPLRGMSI
Description: In vitro, high-throughput cellular electrophysiology was employed to detect voltage-dependence of compounds in single concentration screening and IC50 determination for library and medicinal chemistry profiling compounds in 384 well plates.
HEK-293 cell lines stably expressing coding DNA for Kv3.1, 3.2, 3.3, and 3.4 were validated on an automated patch clamp (APC) platform, Qube from Sophion/Denmark. Cell cultures were maintained in DMEM cell growth media containing FBS and appropriate antibiotics at 37° C., 5% CO2 for a maximum of 20 passages. Intra- and extracellular (w. glucose) HEPES buffers containing various monovalent and divalent cations were adjusted to pH 7.2 and 7.4 respectively. Cells were harvested at 75% confluency and resuspended in extracellular buffer and added to wells. Negative pressure was applied to establish whole cell recording by APC.
Currents through activated channels were measured directly by APC by employing depolarization voltage steps. Baseline currents were established for the voltage-dependence protocols using a −80 mV holding potential and multiple test pulses at +10 mV or by 10 mV steps from −80 mV to +40 mV, respectively. Test compounds were added after baseline recordings followed by a 10 min incubation, and voltage-dependency protocol recordings. Data was corrected for baseline and leak currents (well based) and normalized for % potentiation (plate based). Two previously reported Kv3 positive modulators of varying potencies were used for run to run and plate to plate quality controls. A non-selective and potent positive modulator was used as a positive control. Percent potentiation was analyzed at −20 mV of the voltage-dependency protocol and voltage shift in channel activation was analyzed using the voltage step protocol from −80 mV to +40 mV. Selectivity was assessed against Kv3.2, Kv3.3, and Kv3.4 overexpressing cell lines using similar methods.

| SMILES | pEC50 |
| --- | --- |
| Cc1ccc(Oc2ccc(-n3c(=O)[nH]c4cccnc43)cn2)cc1F [Example 35, 3-[6-(3-fluoro-4-methyl-phenoxy)-3-pyridyl]-1H-imidazo[4,5-b]pyridin-2-one] | 5.44 |
| Cc1ccc(Oc2ccc(-n3c(=O)[nH]c4cccnc43)cn2)c(F)c1 [Example 36, 3-[6-(2-fluoro-4-methyl-phenoxy)-3-pyridyl]-1H-imidazo[4,5-b]pyridin-2-one] | 5.37 |
| Cc1cc(C#N)ccc1Oc1ccc(-n2c(=O)[nH]c3cccnc32)cn1 [Example 37, 3-methyl-4-[[5-(2-oxo-1H-imidazo[4,5-b]pyridin-3-yl)-2-pyridyl]oxy]benzonitrile] | 5.22 |
| Cc1cc(C#N)cc(C)c1Oc1ccc(-n2c(=O)[nH]c3cccnc32)cn1 [Example 38, 3,5-dimethyl-4-[[5-(2-oxo-1H-imidazo[4,5-b]pyridin-3-yl)-2-pyridyl]oxy]benzonitrile] | 5.28 |
| COc1cc(C)ccc1Oc1ccc(-n2c(=O)[nH]c3cccnc32)cn1 [Example 39, 3-[6-(2-methoxy-4-methyl-phenoxy)-3-pyridyl]-1H-imidazo[4,5-b]pyridin-2-one] | 5.30 |
| N#Cc1ccc(Oc2ccc(-n3c(=O)[nH]c4cccnc43)cn2)c(C(F)(F)F)c1 [Example 40, 4-[[5-(2-oxo-1H-imidazo[4,5-b]pyridin-3-yl)-2-pyridyl]oxy]-3-(trifluoromethyl)benzonitrile] | 5.18 |
| COc1cc(Oc2ccc(-n3c(=O)[nH]c4cccnc43)cn2)cnc1C [Example 41, 3-[6-[(5-methoxy-6-methyl-3-pyridyl)oxy]-3-pyridyl]-1H-imidazo[4,5-b]pyridin-2-one] | 4.79 |
| Cc1ccc(Oc2ccc(-n3c(=O)[nH]c4cnccc43)cn2)cc1Cl [Example 42, 1-[6-(3-chloro-4-methyl-phenoxy)-3-pyridyl]-3H-imidazo[4,5-c]pyridin-2-one] | 5.00 |
| COc1cc(Oc2ccc(-n3c(=O)[nH]c4cncnc43)cn2)ccc1C [Example 43, 9-[6-(3-methoxy-4-methyl-phenoxy)-3-pyridyl]-7H-purin-8-one] | 5.13 |
| COc1cc(Oc2ncc(-n3c(=O)[nH]c4cnccc43)cc2F)ccc1C [Example 44, 1-[5-fluoro-6-(3-methoxy-4-methyl-phenoxy)-3-pyridyl]-3H-imidazo[4,5-c]pyridin-2-one] | 5.54 |
| COc1cc(Oc2ncc(-n3c(=O)[nH]c4cnccc43)cc2C)ccc1C [Example 45, 1-[5-methyl-6-(3-methoxy-4-methyl-phenoxy)-3-pyridyl]-3H-imidazo[4,5-c]pyridin-2-one] | 5.51 |
| COc1cc(Oc2ncc(-n3c(=O)[nH]c4cccnc43)cc2C)ccc1C [Example 46, 3-[6-(3-methoxy-4-methyl-phenoxy)-5-methyl-3-pyridyl]-1H-imidazo[4,5-b]pyridin-2-one] | 5.40 |
| COc1cc(Oc2ccc(-n3c(=O)[nH]c4nccnc43)cn2)ccc1C [Example 48, 3-[6-(3-methoxy-4-methyl-phenoxy)-3-pyridyl]-1H-imidazo[4,5-b]pyrazin-2-one] | 5.41 |
| CCc1cc(Oc2ccc(-n3c(=O)[nH]c4cccnc43)cn2)ccc1C#N [Example 49, 2-ethyl-4-[[5-(2-oxo-1H-imidazo[4,5-b]pyridin-3-yl)-2-pyridyl]oxy]benzonitrile] | 5.39 |
| Cc1ccc(Oc2ccc(-n3c(=O)[nH]c4cncnc43)cn2)cc1Cl [Example 50, 9-[6-(3-chloro-4-methyl-phenoxy)-3-pyridyl]-7H-purin-8-one] | 4.91 |
| CC(C)(C)c1cc(C#N)ccc1Oc1ccc(-n2c(=O)[nH]c3cccnc32)cc1F [Example 51, 3-tert-butyl-4-[2-fluoro-4-(2-oxo-1H-imidazo[4,5-b]pyridin-3-yl)phenoxy]benzonitrile] | 4.90 |
| CC(C)c1cc(C#N)ccc1O[C@H]1C[C@H](n2c(=O)[nH]c3cccnc32)C1 [Example 52, 3-isopropyl-4-[3-(2-oxo-1H-imidazo[4,5-b]pyridin-3-yl)cyclobutoxy]benzonitrile] | 4.76 |
| COc1cc(O[C@H]2C[C@H](n3c(=O)[nH]c4cnccc43)C2)ccc1C [Example 53, 1-[3-(3-methoxy-4-methyl-phenoxy)cyclobutyl]-3H-imidazo[4,5-c]pyridin-2-one] | 5.44 |

same assay, conditions: HEK-293 cell line stably expressing Kv3.1; automated patch clamp; 10 min incubation; read-out: EC50 Kv3.1

| SMILES | pEC50 |
| --- | --- |
| Cc1ccc(Oc2ccc(-n3c(=O)[nH]c4cnccc43)cn2)cc1OC(F)(F)F [Example 47, 1-[6-[4-methyl-3-(trifluoromethoxy)phenoxy]-3-pyridyl]-3H-imidazo[4,5-c]pyridin-2-one] | 5.62 |
